Measurements reported in ChEMBL document CHEMBL1121574, “Third Smissman Award address: reminiscences and musings of a classical medicinal chemist” (J Med Chem, 1980).
The source made the active and inactive calls. The rule behind the calls is not given here.

Key:
Monkey [1] = assay: Physical dependence capacity at abstinence suppressant dose; Low; type: functional, organism-based; conditions: Cercopithecidae
Monkey [2] = assay: Physical dependence capacity at abstinence suppressant dose; No; type: functional, organism-based; conditions: Cercopithecidae
[3] = Abstinence suppressant dose of the compound; type: functional
Mus musculus [4] = species: Mus musculus; assay: Analgesic activity in mouse; type: functional
Monkey [5] = assay: Physical dependence capacity at abstinence suppressant dose; Intermediate; type: functional, organism-based; conditions: Cercopithecidae
Monkey [6] = assay: Physical dependence capacity at abstinence suppressant dose; Very low; type: functional, organism-based; conditions: Cercopithecidae
Monkey [7] = assay: Physical dependence capacity at abstinence suppressant dose; None; type: functional, organism-based; conditions: Cercopithecidae
[8] = Abstinence suppressant dose of the compound; range 2-12mg/kg, no suppression; type: functional
[9] = Abstinence suppressant dose of the compound; range 2-60 no suppression; type: functional
[10] = Abstinence suppressant dose of the compound; range 2-60 mg/kg, no suppression; type: functional
[11] = Abstinence suppressant dose of the compound; range 0.5-12 mg/kg, no suppression; type: functional
Monkey [12] = assay: Physical dependence capacity at abstinence suppressant dose; High; type: functional, organism-based; conditions: Cercopithecidae
[13] = Abstinence suppressant dose of the compound; range 1-16 mg/kg, no suppression; type: functional
Monkey [14] = assay: Physical dependence capacity at abstinence suppressant dose; low; type: functional, organism-based; conditions: Cercopithecidae
Monkey [15] = assay: Physical dependence capacity at abstinence suppressant dose; high; type: functional, organism-based; conditions: Cercopithecidae
[16] = Abstinence suppressant dose of the compound; range 3-30 mg/kg, no suppression; type: functional
Mus musculus [17] = species: Mus musculus; assay: The compound was tested for its analgesic activity in mouse; Inactive; type: functional, organism-based

## CC[C@]12CCN(C)C(Cc3ccc(O)cc31)C2 [listing 1 of 2 here]
Monkey [1]
  Physical dependence capacity: Low

## C[C@H]1C2Cc3ccc(O)cc3[C@]1(C)CCN2C (single isomer, unassigned; (-)) [listing 1 of 2 here]
Monkey [2]
  Physical dependence capacity: No dependance

## CC[C@]12CCN(C)C(Cc3ccc(O)cc31)[C@@H]2C
Monkey [1]
  Physical dependence capacity: Low
[3]
  Dose: >40 mg/kg

## COc1ccc2c3c1O[C@H]1[C@@H](O)C=C[C@H]4[C@@H](C2)N(C)CC[C@@]341 [CODEINE]
Mus musculus [4]; Mus musculus, read-out: ED50
  ED50: 7.5 mg/kg
Monkey [5]
  Physical dependence capacity: Partially active

## CC[C@]12CCN(C)C(Cc3ccc(O)cc31)C2C (some centres undefined)
Monkey [5]
  Physical dependence capacity: Intermediate
[3]
  Dose: 1 mg/kg

## CN1CC[C@]2(C)CC1Cc1ccc(O)cc12 (single isomer, unassigned; (+)) [listing 1 of 2 here]
Monkey [6]
  Physical dependence capacity: Very low

## C[C@H]1C2Cc3ccc(O)cc3[C@]1(C)CCN2C [listing 1 of 2 here]
[3]
  Dose: 24 mg/kg

## CC[C@]12CCN(C)C(Cc3ccc(O)cc31)C2 (single isomer, unassigned; (-)) [listing 1 of 2 here]
Mus musculus [4]
  ED50: 0.6 mg/kg

## CC[C@H]1C2Cc3ccc(O)cc3[C@]1(CC)CCN2C (single isomer, unassigned; (+)) [listing 1 of 2 here]
Mus musculus [4]
  ED50: 7.5 mg/kg

## CC[C@H]1C2Cc3ccc(O)cc3[C@]1(C)CCN2C
Monkey [7]
  Physical dependence capacity: inactive
[8]
  Dose: 2 mg/kg

## CC[C@H]1C2Cc3ccc(O)cc3[C@]1(CC)CCN2C (single isomer, unassigned; (-)) [listing 1 of 2 here]
Monkey [2]
  Physical dependence capacity: No dependance

## CCC[C@]12CCN(C)C(Cc3ccc(O)cc31)[C@@H]2C (single isomer, unassigned; (+)) [listing 1 of 2 here]
Mus musculus [4]
  ED50: 12.3 mg/kg

## CC[C@]12CCN(C)C(Cc3ccc(O)cc31)C2 (single isomer, unassigned; (+)) [listing 1 of 2 here]
Mus musculus [4]
  ED50: 21.8 mg/kg

## CC[C@H]1C2Cc3ccc(O)cc3[C@]1(CC)CCN2C [listing 1 of 2 here]
[9]
  Dose: 2 mg/kg

## CN1CC[C@]2(C)CC1Cc1ccc(O)cc12 [listing 1 of 2 here]
[10]
  Dose: 2 mg/kg

## CC1C2Cc3ccc(O)cc3[C@]1(C)CCN2C (some centres undefined)
Monkey [1]
  Physical dependence capacity: Low
[3]
  Dose: >18 mg/kg

## CC[C@]12CCN(C)C(Cc3ccc(O)cc31)C2 (single isomer, unassigned; (-)) [listing 2 of 2 here]
Monkey [2]
  Physical dependence capacity: No dependance

## CCC[C@]12CCN(C)C(Cc3ccc(O)cc31)[C@@H]2C (single isomer, unassigned; (-)) [listing 1 of 2 here]
Mus musculus [4]
  ED50: 0.8 mg/kg

## CN1CC[C@]2(C)CC1Cc1ccc(O)cc12 (single isomer, unassigned; (+)) [listing 2 of 2 here]
Mus musculus [4]
  ED50: 22.9 mg/kg

## C[C@H]1C2Cc3ccc(O)cc3[C@]1(C)CCN2C [listing 2 of 2 here]
Monkey [1]
  Physical dependence capacity: Low

## CCC1C2Cc3ccc(O)cc3[C@]1(CC)CCN2C (some centres undefined)
Monkey [7]
  Physical dependence capacity: inactive
[11]
  Dose: 0.5 mg/kg

## CC[C@H]1C2Cc3ccc(O)cc3[C@]1(CC)CCN2C (single isomer, unassigned; (+)) [listing 2 of 2 here]
Monkey [5]
  Physical dependence capacity: Intermediate

## CN1CC[C@]2(C)CC1Cc1ccc(O)cc12 [listing 2 of 2 here]
Monkey [7]
  Physical dependence capacity: inactive

## CN1CC[C@]2(C)CC1Cc1ccc(O)cc12 (single isomer, unassigned; (-)) [listing 1 of 2 here]
Mus musculus [4]
  ED50: 1.8 mg/kg

## CN1CC[C@]2(C)CC1Cc1ccc(O)cc12 (single isomer, unassigned; (-)) [listing 2 of 2 here]
Monkey [1]
  Physical dependence capacity: Low

## CCC[C@]12CCN(C)C(Cc3ccc(O)cc31)[C@@H]2C (single isomer, unassigned; (+)) [listing 2 of 2 here]
Monkey [12]
  Physical dependence capacity: High

## CC[C@H]1C2Cc3ccc(O)cc3[C@]1(CC)CCN2C [listing 2 of 2 here]
Monkey [7]
  Physical dependence capacity: inactive

## CC[C@]12CCN(C)C(Cc3ccc(O)cc31)C2 [listing 2 of 2 here]
[13]
  Dose: 1 mg/kg

## CC[C@]12CCN(C)C(Cc3ccc(O)cc31)C2 (single isomer, unassigned; (+)) [listing 2 of 2 here]
Monkey [14]
  Physical dependence capacity: Low

## CN1CC[C@]23c4c5ccc(O)c4O[C@H]2[C@@H](O)C=C[C@H]3[C@H]1C5 [MORPHINE]
Mus musculus [4]; Mus musculus, read-out: ED50
  ED50: 1.2 mg/kg
Monkey [15]
  Physical dependence capacity: Active

## C[C@H]1C2Cc3ccc(O)cc3[C@]1(C)CCN2C (single isomer, unassigned; (-)) [listing 2 of 2 here]
Mus musculus [4]; Mus musculus, read-out: ED50
  ED50: 0.6 mg/kg

## CC[C@H]1C2Cc3ccc(O)cc3[C@]1(CC)CCN2C (single isomer, unassigned; (-)) [listing 2 of 2 here]
Mus musculus [4]
  ED50: 1.2 mg/kg

## CCC[C@]12CCN(C)C(Cc3ccc(O)cc31)C2
Monkey [7]
  Physical dependence capacity: inactive
[16]
  Dose: 3 mg/kg

## C[C@H]1C2Cc3ccc(O)cc3[C@]1(C)CCN2C (single isomer, unassigned; (+))
Monkey [2]
  Physical dependence capacity: No dependance
Mus musculus [17]
  ED50: inactive

## CCC[C@]12CCN(C)C(Cc3ccc(O)cc31)[C@@H]2C (single isomer, unassigned; (-)) [listing 2 of 2 here]
Monkey [2]
  Physical dependence capacity: No dependance
